Here are results for 15 molecules from US20260124222A1, “ISOTHIAZOLYLCARBOXAMIDE COMPOUNDS AND THEIR USE IN THERAPY” (HOTSPOT THERAPEUTICS, INC., priority 2022, published 2026).

The target of the test is T1, Avi-tagged FL MALT-1 (Homo sapiens, UniProt Q9UDY8).
T1 construct: Avi-tagged FL MALT-1 (Pharmaron, stored at −70° C.); Avi-tag; purchased Pharmaron
T1 sequence (Q9UDY8 1-824): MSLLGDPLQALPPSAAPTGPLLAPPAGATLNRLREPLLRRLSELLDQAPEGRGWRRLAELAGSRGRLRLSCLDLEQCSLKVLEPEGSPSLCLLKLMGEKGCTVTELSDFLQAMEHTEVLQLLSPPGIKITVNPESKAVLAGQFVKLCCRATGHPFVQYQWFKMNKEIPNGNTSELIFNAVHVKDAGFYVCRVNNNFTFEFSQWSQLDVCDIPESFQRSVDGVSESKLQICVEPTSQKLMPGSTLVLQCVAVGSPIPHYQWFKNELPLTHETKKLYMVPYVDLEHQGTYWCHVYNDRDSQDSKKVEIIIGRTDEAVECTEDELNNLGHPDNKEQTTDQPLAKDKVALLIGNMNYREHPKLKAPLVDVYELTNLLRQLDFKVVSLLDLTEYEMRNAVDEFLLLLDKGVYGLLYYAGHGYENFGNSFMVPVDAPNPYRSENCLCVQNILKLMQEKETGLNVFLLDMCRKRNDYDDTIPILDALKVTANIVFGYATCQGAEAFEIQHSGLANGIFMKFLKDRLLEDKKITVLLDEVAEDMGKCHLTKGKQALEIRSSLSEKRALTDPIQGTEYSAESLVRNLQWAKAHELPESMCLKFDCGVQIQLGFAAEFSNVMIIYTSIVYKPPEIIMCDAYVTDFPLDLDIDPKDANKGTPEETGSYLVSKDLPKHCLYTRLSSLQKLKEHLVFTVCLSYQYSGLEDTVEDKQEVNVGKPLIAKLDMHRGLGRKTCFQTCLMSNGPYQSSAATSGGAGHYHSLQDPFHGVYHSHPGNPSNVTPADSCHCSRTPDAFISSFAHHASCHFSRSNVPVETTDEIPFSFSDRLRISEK
Description: MALT-1 Fluorogenic Peptide Cleavage Assay (MALT1 inhibition assay). Format: biochemical. As to conditions: Ac-LRSR-AMC peptide substrate; 30 min pre-incubation, 90 min reaction at room temperature; fluorescence. As to the method:
Inhibition of MALT1 activity by a small molecule was evaluated using MALT-1 Fluorogenic Peptide Cleavage Assay. The assay utilizes a quenched AMC-labelled peptide that contains the MALT-1 recognition sequence and cleavage site (LRSR). MALT-1 mediated cleavage of the peptide relieves the quenching and leads to an increase in fluorescence at excitation (342 nm) and emission (441 nm).
The following reagents were obtained commercially and used to prepare standard reagent formulations as further described below: N-2-hydroxyethylpiperazine-N-2-ethane sulfonic acid (HEPES) (1 M, pH 7.5, stored at 4° C.), sodium citrate (stored at RT), tris(2-carboxyethyl)phosphine hydrochloride (T-CEP) (500 mM, stored at −20° C.), ethylenediaminetetraacetic acid (EDTA) (500 mM, stored at RT), dimethylsulfoxide (DMSO, stored at RT), 3-[(3-cholamidopropyl)dimethylammonio]-1-propane sulphate (CHAPS) (stored at RT), dimethylsulfoxide (DMSO), DMSO (Fisher Scientific, stored at RT), Avi-tagged FL MALT-1 (Pharmaron, stored at −70° C.), Ac-LRSR-AMC Peptide (SM Biochemicals, stored at −20° C.), and ultrapure water (MILLI-Q®).
The standard reagent formulations used in this assay were prepared and stored as follows. A 1.1 M solution of sodium citrate (161.3 g, 500 mL) was prepared and stored at room temperature. A 10% (w/v) CHAPS solution (2.0 g, 20 mL) was prepared and stored at 4° C. A 500 mM HEPES solution having pH of 6.89 was prepared from 200 mL of a 1 M HEPES solution having a pH of 7.5 using concentrated hydrochloric acid and brought to a final volume of 400 mL with MILLI-Q© H2O. The substrate, 10 mM Ac-LRSR-AMC Peptide, was prepared (10 mg, 1.370 mL DMSO) and stored at −20° C.
Compounds were plated to provide a 2% DMSO final concentration using a ProxiPlate-384 Plus F Black 384-shallow well microplate. The assay-ready plates were equilibrated to room temperature. A reaction buffer (30 mL total volume) was prepared by combining HEPES (pH 6.89, 25 mM, 1.5 mL), sodium citrate (660 mM, 18.0 mL), T-CEP (1 mM, 0.06 mL), EDTA (0.1 mM, 0.06 mL), CHAPS (0.05%, 0.15 mL), DMSO (2%, 0.6 mL), and MILLI-Q® H2O (10.23 mL; 9.63 mL when backfilled to 2% DMSO) followed by thorough mixing.
MALT-1 was thawed and kept on ice. Peptide substrate was thawed on the bench under ambient conditions. A MALT-1 enzyme working stock was prepared from Avi-tagged FL MALT-1 (40 nM in a prepared reagent volume of […]) and the reaction buffer (13.0 mL). MALT1 working stock (5 μL) was added to each well of the microplate. MALT-1 was pre-incubated with compounds for 30 minutes at room temperature.
Two substrate working stocks (Km and 10×Km) were prepared. The 1×Km substrate was prepared from Ac-LRSR-AMC Peptide (50 μM in a prepared reagent volume of […]) and the reaction buffer (6.965 mL). The 10×Km substrate was prepared from Ac-LRSR-AMC Peptide ([…] in a prepared reagent volume of 196.0 μL) and the reaction buffer (6.804 mL). The reaction was initiated by the addition of substrate working stock (5 μL, 50 μM) to Km plates and the addition of substrate working stock (5 μL 280 μM) to 10×Km plates. The plates were covered and incubated on the bench at room temperature for 90 minutes.
Fluorescence intensity was determined using a CLARIOstar microplate reader (BMG LABTECH) using the optimised AMC mode. Before taking readings, a 70% gain was applied on the neutral control well. Compound data were normalised to % Inhibition and used to plot sigmoidal concentration response curves to yield various parameters including IC50.

One may read the IC50 as the concentration that inhibits the measured activity by half. Read a high IC50 as lower potency. `O=C(Nc1cnc(-n2nccn2)c(Cl)c1)c1snc(-c2ccccc2)c1I` [I-1, N-(5-CHLORO-6-(2H-1,2,3-TRIAZOL-2-YL)PYRIDIN-3-YL)-4-IODO-3-PHENYLISOTHIAZOLE-5-CARBOXAMIDE] had an IC50 of at most 400 nM.
As for `O=C(Nc1cnc(-n2nccn2)c(Cl)c1)c1cc(-c2ccccc2)ns1` [I-2, N-(5-CHLORO-6-(2H-1,2,3-TRIAZOL-2-YL)PYRIDIN-3-YL)-3-PHENYLISOTHIAZOLE-5-CARBOXAMIDE], the IC50 lay in the range of 1000 to 2500 nM.
The figure for `Cc1c(-c2ccccc2)nsc1C(=O)Nc1cnc(-n2nccn2)c(Cl)c1` [I-3, N-(5-CHLORO-6-(2H-1,2,3-TRIAZOL-2-YL)PYRIDIN-3-YL)-4-METHYL-3-PHENYLISOTHIAZOLE-5-CARBOXAMIDE] is at most 400 nM; for `N#Cc1c(-c2ccccc2)nsc1C(=O)Nc1cnc(-n2nccn2)c(Cl)c1` [I-4, N-(5-CHLORO-6-(2H-1,2,3-TRIAZOL-2-YL)PYRIDIN-3-YL)-4-CYANO-3-PHENYLISOTHIAZOLE-5-CARBOXAMIDE] it is 400 to 1000 nM.
Turning to `CC(C)c1c(-c2ccccc2)nsc1C(=O)Nc1cnc(-n2nccn2)c(Cl)c1` [I-5, N-(5-CHLORO-6-(2H-1,2,3-TRIAZOL-2-YL) PYRIDIN-3-YL)-4-ISOPROPYL-3-PHENYLISOTHIAZOLE-5-CARBOXAMIDE], the half-inhibitory concentration (IC50) was at most 400 nM.
Next, `O=C(Nc1cnc(-n2nccn2)c(Cl)c1)c1snc(-c2ccccc2)c1C1CC1` [I-6, N-(5-CHLORO-6-(2H-1,2,3-TRIAZOL-2-YL) PYRIDIN-3-YL)-4-CYCLOPROPYL-3-PHENYLISOTHIAZOLE-5-CARBOXAMIDE]: at most 400 nM.
Next, `O=C(Nc1cnc(-n2nccn2)c(Cl)c1)c1snc(-c2ccccc2)c1C(F)(F)F` [I-7, N-(5-CHLORO-6-(2H-1,2,3-TRIAZOL-2-YL) PYRIDIN-3-YL)-3-PHENYL-4-(TRIFLUOROMETHYL)ISOTHIAZOLE-5-CARBOXAMIDE]: at most 400 nM; `N#Cc1cc(NC(=O)c2snc(-c3ccccc3)c2C(F)(F)F)cnc1-n1nccn1` [I-8, N-(5-CYANO-6-(2H-1,2,3-TRIAZOL-2-YL)PYRIDIN-3-YL)-3-PHENYL-4-(TRIFLUOROMETHYL)ISOTHIAZOLE-5-CARBOXAMIDE]: at most 400 nM.
Next, `N#Cc1cc(NC(=O)c2snc(-c3ccccc3)c2C2CC2)cnc1-n1nccn1` [I-9, N-(5-CYANO-6-(2H-1,2,3-TRIAZOL-2-YL) PYRIDIN-3-YL)-4-CYCLOPROPYL-3-PHENYLISOTHIAZOLE-5-CARBOXAMIDE]: at most 400 nM; `C=Cc1c(-c2ccccc2)nsc1C(=O)Nc1cnc(-n2nccn2)c(Cl)c1` [I-10, N-(5-CHLORO-6-(2H-1,2,3-TRIAZOL-2-YL) PYRIDIN-3-YL)-4-VINYL-3-PHENYLISOTHIAZOLE-5-CARBOXAMIDE]: at most 400 nM; `CCc1c(-c2ccccc2)nsc1C(=O)Nc1cnc(-n2nccn2)c(Cl)c1` [I-11, N-(5-CHLORO-6-(2H-1,2,3-TRIAZOL-2-YL) PYRIDIN-3-YL)-4-ETHYL-3-PHENYLISOTHIAZOLE-5-CARBOXAMIDE]: at most 400 nM.
In turn, `Cc1cc(NC(=O)c2snc(-c3ccccc3)c2C2CC2)cnc1-n1nccn1` [I-12, 4-CYCLOPROPYL-N-(5-METHYL-6-(2H-1,2,3-TRIAZOL-2-YL)PYRIDIN-3-YL)-3-PHENYLISOTHIAZOLE-5-CARBOXAMIDE] came in with an IC50 of at most 400 nM.
`O=C(Nc1cnc(-n2nccn2)c(C(F)F)c1)c1snc(-c2ccccc2)c1C1CC1` [I-13, 4-CYCLOPROPYL-N-(5-(DIFLUOROMETHYL)-6-(2H-1,2,3-TRIAZOL-2-YL)PYRIDIN-3-YL)-3-PHENYLISOTHIAZOLE-5-CARBOXAMIDE] gave a half-maximal inhibitory concentration (IC50) of at most 400 nM.
Consider `O=C(Nc1cnc(-n2nccn2)c(C(F)(F)F)c1)c1snc(-c2ccccc2)c1C1CC1` [I-14, 4-CYCLOPROPYL-N-(5-(TRIFLUOROMETHYL)-6-(2H-1,2,3-TRIAZOL-2-YL)PYRIDIN-3-YL)-3-PHENYLISOTHIAZOLE-5-CARBOXAMIDE], for which the IC50 was at most 400 nM.
The figure for `O=C(Nc1ccnc(C(F)(F)F)c1)c1snc(-c2ccccc2)c1C(F)(F)F` [I-15, 3-PHENYL-4-(TRIFLUOROMETHYL)-N-(2-(TRIFLUOROMETHYL)PYRIDIN-4-YL)ISOTHIAZOLE-5-CARBOXAMIDE] is at most 400 nM.
